Measurements from patent publication US20180021320A1, “Method of Preventing or Treating Hearing Loss” (SUPPORT-VENTURE GMBH, priority 2015, published 2018).
Entries after “also recorded” stand apart in the source; their conditions may differ.

Key:
[1] = system: hair cells of mouse OC's in culture; assay: Protection against gentamicin-induced hair cell loss in mouse organ of Corti explants; assay type: cell-based; settings: 24 h; for loss of hair cells: 50 μM gentamicin alone
Experimental: (§1) OCs were harvested then placed in culture medium [Dulbecco's Modified Eagle Medium supplemented with 10% FCS, 25 mM HEPES and 30 U/ml penicillin (Invitrogen, Carlsbad, Calif., USA)] and incubated for 24 hours at 37° C. in an atmosphere of 95% O2/5% CO2. After that period, the culture medium was replaced with fresh medium containing no compound or 200 μM gentamycin alone or 200 μM gentamicin with either 2 or 10 μM pioglitazone, and incubated for a further 48 hours at 37° C. Ten OC explants were used for each treatment condition.
(§2) After incubation with compounds, the OCs were fixed in 4% paraformaldehyde, washed and then stained with a fluorescein (FITC)-conjugated phalloidin to detect inner and outer hair cells. After staining, the OCs were visualized and photographed using a fluorescence microscope (Olympus FSX100). Outer and inner hair cells were separately quantitated for the apical, basal, and middle turn of each organ of Corti. The values for each turn were averaged for the 10 OCs used for each condition. Significant differences between treatment groups in numbers OHC and IHC were determined using analysis of variance (ANOVA) followed by the least significant difference (LSD) post-hoc test (Stat View 5.0). Differences associated with P-values of less than 0.05 were considered to be statistically significant. All data are presented as mean±SD.
Methods were similar to those in Example 1. The main differences were that mouse OC's were used rather than rat OC's. Moreover, treatment was performed for 24 hrs with 50 μM gentamicin. The number of OC's used for each experimental condition was 3-5. The concentrations of test substances were 2 μM and 10 μM for tesaglitazar and muraglitazar, and 25 μM and 150 μM for fenofibric acid.

[2] = system: hair cells of organ of Corti (OC) explants; assay: Protection against gentamicin-induced hair cell loss in rat organ of Corti explants; assay type: cell-based, Sprague-Dawley rats
Experimental: All animal procedures were carried out according to protocols approved by the Kantonales Veterinäramt, Basel, Switzerland. Postnatal day 5 (p5) Sprague-Dawley rats were used for the studies. Studies were performed in vitro, using organ of Corti (OC) explants from p5 animals. Animals were sacrificed and the cochleae carefully dissected to separate the organ of Corti from the spiral ganglion, stria vascularis and Reissner's membrane [Sobkowicz H M, Loftus J M, Slapnick S M. Acta Otolaryngol Suppl. 1993; 502:3-36].
as §1, §2

[3] = system: noise-induced hearing loss; assay: Protection against noise-induced hearing loss, auditory brainstem response (ABR); assay type: in vivo, guinea pigs; settings: for threshold shift (ABR), mean±SD: single 40 μl round window application day before noise
Source text: The guinea pig model is the preferred animal species in hearing research. The agent application as well as the noise trauma was applied under general anesthesia. Upon arrival, animals underwent an acclimatization period of at least one week prior to experiments.
Guinea pigs were first anaesthetized and hearing evaluated by a standard ABR method then into treatment groups. Each animal received a single round window application of test substance to both ears. The following day, animals were exposed to 115 dB broad band noise for 2 hrs under anaesthesia. At one and two weeks following noise exposure, the animals underwent a second hearing evaluation.
Animals were dosed with a single 40 μl application of pioglitazone formulation or matching vehicle, onto the cochlear round window in both ears the day prior to noise exposure. For this approach, a hole was drilled in the rostral part of the skull to directly access the Bulla which allows drug application to the round window under visual control.
Animals were noise-exposed in a soundproof chamber (0.8×0.8×0.8 m, minimal attenuation 60 dB) for 2 h to broadband white noise (5-20 kHz) at 115 dB sound pressure level (SPL) under anaesthesia (60 mg/kg ketamine and 6 mg/kg xylazine). Noise was delivered binaurally by loudspeakers (HTC 11.19; Visaton, Haan, Germany) placed above the animal's head. The speakers were connected to an audio amplifier (Tangent AMP-50; Aulum, Denmark) and a DVD player.
At baseline before the noise exposure and on day 7 and 14 after noise, frequency-specific (2; 4; 8; 12; 16; 20; 24; 28; 32; 36; 40 kHz) auditory brainstem responses (ABR) were recorded in all treated animals and in controls. Auditory stimuli were delivered binaurally at different SPLs with a sinusoid generator (Model SSU2; Werk Fernmeldewesen, Berlin, Germany). Frequency output was controlled and adjusted with a digital counter (1941A Digital Counter; Fluke, Scarborough, Ontario, Canada). Sub-dermal needle electrodes were placed at the vertex (active), mastoid (reference), and in one foot (ground). ABR recordings were carried out with a Viking IV-measurement system (Viasys Healthcare, Conshohocken, Pa.). The brainstem responses were amplified (100,000×), filtered (bandpass 0.15-3 kHz), and averaged (300×) by the Viking IV-system. The amplitudes of the ABR waves were measured at different sound intensities by changing the attenuation of signal amplification. The amplitude-growth function was calculated for each tested frequency, and a linear regression was fitted to the linear portion of the data. The hearing threshold could be calculated for each frequency by extrapolating the linear amplitude-grow function of the regression line to zero. […]

[4] = 2 μM test substance with 50 μM gentamicin
[5] = 10 μM test substance with 50 μM gentamicin
[6] = concentration not stated, 50 μM gentamicin, medio-basal turns

COc1ccc(OC(=O)N(CC(=O)O)Cc2ccc(OCCc3nc(-c4ccccc4)oc3C)cc2)cc1 [Muraglitazar]
protection from gentamicin-dependent hair cell loss [1, 4]: not effective | protection from gentamicin-dependent hair cell loss [1, 5]: partially protective | protection from gentamicin-dependent hair cell loss [1, 6]: protected from gentamicin-dependent hair cell loss; also recorded: significantly prevent gentamicin-dependent hair cell loss

CCc1ccc(CCOc2ccc(CC3SC(=O)NC3=O)cc2)nc1 (stereo not drawn) [Pioglitazone, pioglitazone]
prevention of gentamicin-dependent hair cell loss (IHC and OHC; apical, basal, middle turns) ([2]; 2 μM pioglitazone with 200 μM gentamicin, 48 h): significantly prevent gentamicin-dependent hair cell loss in all turns | prevention of gentamicin-dependent hair cell loss (IHC and OHC; apical, basal, middle turns) ([2]; 2 μM pioglitazone with 200 μM gentamicin, 48 h, listed as pioglitazone): completely prevent gentamicin-dependent hair cell loss in all turns | prevention of gentamicin-dependent hair cell loss (IHC and OHC; apical, basal, middle turns) ([2]; 10 μM pioglitazone with 200 μM gentamicin, 48 h): significantly prevent gentamicin-dependent hair cell loss in all turns | prevention of gentamicin-dependent hair cell loss (IHC and OHC; apical, basal, middle turns) ([2]; 10 μM pioglitazone with 200 μM gentamicin, 48 h, listed as pioglitazone): completely prevent gentamicin-dependent hair cell loss in all turns | prevention of gentamicin-dependent hair cell loss ([2]; pioglitazone co-treatment, concentration not stated, 48 h): almost completely preventing gentamicin-dependent hair cell loss | reduction in the threshold shifts vs. vehicle controls ([3]; hearing recorded 7-14 days after noise trauma): > 50% | threshold shift (ABR), mean±SD ([3]; one week after noise (115 dB, 2 h), 5-20 kHz): 12.7±1.3 dB | protection from noise-induced hearing loss ([3]; one week after noise, vs. vehicle): approximately 60% | threshold shift (ABR), mean±SD ([3]; two weeks after noise (115 dB, 2 h)): 6.3±3.9 dB

Tesaglitazar
protection from gentamicin-dependent hair cell loss [1, 4]: able to antagonize the effects of gentamicin and to preserve hair cell number and morphology | protection from gentamicin-dependent hair cell loss [1, 5]: able to antagonize the effects of gentamicin and to preserve hair cell number and morphology | protection from gentamicin-dependent hair cell loss [1, 6]: protected from gentamicin-dependent hair cell loss; also recorded: significantly prevent gentamicin-dependent hair cell loss

fenofibric acid
protection from gentamicin-dependent hair cell loss ([1]; 25 μM test substance with 50 μM gentamicin): not effective | protection from gentamicin-dependent hair cell loss ([1]; 150 μM test substance with 50 μM gentamicin): completely protective | protection from gentamicin-dependent hair cell loss [1, 6]: protected from gentamicin-dependent hair cell loss; also recorded: significantly prevent gentamicin-dependent hair cell loss

gentamicin
loss of hair cells [1]: approximately 50% | loss of hair cells ([1]; listed as Gentamicin): 50% | reduction of hair cell number ([2]; 200 μM gentamicin alone, 48 h in culture, each segment): 50-70%
